Measured values as given in the supplement of paper PMC10307832.

Legend:
Assay in all cases: relative viability (nuclei count vs DMSO), 5 days (fraction); higher = more cells survive
[1] = compound: COc1cc2c(Oc3ccc4[nH]c(C)cc4c3F)ncnc2cc1OCCCN1CCCC1 [Cediranib] + CC(=O)c1c(C)c2cnc(Nc3ccc(N4CCNCC4)cn3)nc2n(C2CCCC2)c1=O [Palbociclib] (partner 0.5 µM)
In short: (§1)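 Medians of duplicate plates are given as relative viability. That measure is the nuclei count in treated wells divided by the count in vehicle wells. Counts were taken on 4× images of lung cancer cell lines in 1536-well plates, 5 days after pin-tool dosing the day after seeding with one drug alone or a fixed anchor-drug dose plus five library-drug doses (not always all listed) in √10 steps.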

[2] = compound: COc1cc2c(Oc3ccc4[nH]c(C)cc4c3F)ncnc2cc1OCCCN1CCCC1 [Cediranib] + CCNC(=O)c1noc(-c2cc(C(C)C)c(O)cc2O)c1-c1ccc(CN2CCOCC2)cc1 [Luminespib] (partner 0.01 µM)
In short: as §1

[3] = compound: Nc1ncn([C@H]2C[C@H](O)[C@@H](CO)O2)c(=O)n1 [Decitabine] + Cc1nc(Nc2ncc(C(=O)Nc3c(C)cccc3Cl)s2)cc(N2CCN(CCO)CC2)n1 [Dasatinib] (partner 0.075 µM)
In short: as §1

[4] = compound: O=C(C[C@H]1NCCC[C@@H]1O)Cn1cnc2cc(Br)c(Cl)cc2c1=O (racemic) [Halofuginone] + Nc1nc2[nH]cc(CCc3ccc(C(=O)N[C@@H](CCC(=O)O)C(=O)O)cc3)c2c(=O)[nH]1 [Pemetrexed] (partner 0.2 µM)
In short: as §1

Cell Line	relative viability ([1]; first compound 0.04 µM)	relative viability ([1]; first compound 0.1265 µM)	relative viability ([1]; first compound 0.4 µM)	relative viability ([1]; first compound 1.265 µM)	relative viability ([1]; first compound 4 µM)	relative viability ([2]; first compound 0.04 µM)	relative viability ([2]; first compound 0.1265 µM)	relative viability ([2]; first compound 0.4 µM)	relative viability ([2]; first compound 1.265 µM)	relative viability ([2]; first compound 4 µM)	relative viability ([3]; first compound 0.04 µM)	relative viability ([3]; first compound 0.1265 µM)	relative viability ([3]; first compound 0.4 µM)	relative viability ([3]; first compound 1.265 µM)	relative viability ([3]; first compound 4 µM)	relative viability ([4]; first compound 0.001 µM)	relative viability ([4]; first compound 0.003162 µM)	relative viability ([4]; first compound 0.01 µM)	relative viability ([4]; first compound 0.03162 µM)	relative viability ([4]; first compound 0.1 µM)
EMC-BAC-2	0.519	0.562	0.529	0.51	0.499	1.15	1.3	1.13	1.18	1.16	0.334	0.343	0.343	0.284	0.26	0.482	0.462	0.486	0.524	0.438
EPLC-272H	0.297	–	0.312	0.327	0.318	0.32	–	0.243	–	0.228	–	0.297	0.118	0.232	0.144	0.42	0.359	0.308	0.345	0.358
H3255	0.322	0.322	0.316	0.308	0.334	0.83	–	0.879	0.709	0.992	–	0.341	0.251	0.351	0.252	0.585	0.587	0.565	0.57	0.567
HARA	0.249	0.32	0.298	0.301	0.211	0.822	–	0.528	0.775	1.09	0.311	0.261	0.232	0.257	0.138	0.228	0.231	0.283	0.247	0.222
HCC-15	0.69	–	0.681	0.751	0.678	0.188	–	0.261	0.225	0.425	0.625	0.581	0.408	0.361	0.333	0.214	0.248	0.226	0.231	0.235
HCC-44	0.983	0.917	0.974	0.947	1.01	–	–	0.986	1.07	0.843	–	–	–	–	–	0.697	0.654	0.619	0.622	0.621
HCC-78	0.55	–	0.507	0.53	0.592	–	–	–	–	–	0.269	0.334	0.361	0.285	0.208	0.906	0.926	0.885	0.937	0.889
HCC-366	0.451	0.404	0.366	0.411	0.262	–	–	–	–	–	0.608	0.632	0.567	0.195	0.128	0.157	0.167	0.156	0.135	0.12
HCC-827	0.559	0.54	0.433	0.629	0.424	0.724	–	0.541	0.5	0.439	0.139	0.317	0.325	0.284	0.267	0.238	0.237	0.266	0.27	0.239
